Results taken from patent EP4818168A1, “FUSED RING COMPOUND, PHARMACEUTICAL COMPOSITION THEREOF AND USE THEREOF” (priority 2023, dated 2025).
Where two headings read alike, the source gives them in different places.

Legend:
AURKA = molecular target: T1, AURKA (Homo sapiens, UniProt O14965); type: cell-based
T1 construct: endogenous in cells; host or cells: Jurkat cells
T1 sequence (O14965 1-403): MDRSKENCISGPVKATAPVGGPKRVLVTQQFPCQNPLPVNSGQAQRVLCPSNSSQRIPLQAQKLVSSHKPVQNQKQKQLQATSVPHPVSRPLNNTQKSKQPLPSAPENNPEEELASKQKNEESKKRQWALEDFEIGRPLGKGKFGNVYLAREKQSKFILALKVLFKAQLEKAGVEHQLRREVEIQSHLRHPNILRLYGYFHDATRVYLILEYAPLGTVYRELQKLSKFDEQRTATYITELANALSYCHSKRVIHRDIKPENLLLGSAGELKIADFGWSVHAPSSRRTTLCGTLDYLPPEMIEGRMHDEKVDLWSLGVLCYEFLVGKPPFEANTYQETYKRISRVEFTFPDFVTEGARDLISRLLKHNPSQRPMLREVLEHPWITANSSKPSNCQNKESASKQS
Method in brief: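 Jurkat cells seeded at 1×10^6 cells/500 µL and treated with compound; lysates run on SDS-PAGE, blotted to nitrocellulose and probed overnight at 4°C for AURKA. Chemiluminescent or fluorescent band intensity fitted to a curve to give DC50 for protein degradation.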

H82 cells = experiment: cells; type: cell-based; settings: Homo sapiens
Method in brief: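 H82 cells in RPMI1640 + 10% FBS exposed to compound (0.1% DMSO final) for 6 days at 37 °C, 5% CO2. Viability read by CellTiter-Glo ATP luminescence, normalised to DMSO and medium controls; IC50 from nonlinear regression of the dose–survival curve.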

[1] = 100 nM compound, Jurkat cells, 24 h, Table 2
[2] = 1 µM compound, Jurkat cells, 24 h, Table 2
[3] = NCI-H82, H82 cells, 4000 cells/well, CellTiter-Glo, read-out: IC50 in H82 Cells
[4] = NCI-H82, read-out: IC50 in H82 Cells

Row | Compound | Percentage of AURKA Degradation Induced by 100 nM Compound in Jurkat Cells (AURKA; [1]) | Percentage of AURKA Degradation Induced by 1 µM Compound in Jurkat Cells (AURKA; [2]) | IC50 (H82 cells; [3]) [nM] | IC50 (H82 cells; [4]) [nM] | Percentage of AURKA Degradation Induced by 100 nM Compound in Jurkat Cells (AURKA) | Percentage of AURKA Degradation Induced by 1 µM Compound in Jurkat Cells (AURKA)
1 | O=C1CCN(c2ccc(N3CCC(C(=O)N4CCN(C56CC(Nc7ncc8c(n7)-c7ccc(Cl)cc7C(c7c(F)cccc7F)=NC8)(C5)C6)C(=O)C4)CC3)nc2)C(=O)N1 [Compound A270] | +++ (Degradation > 70%) | +++ (Degradation > 70%) | < 1000 | – | – | –
2 | O=C1CCN(c2ccc(N3CCC(N4CCC(c5ccc(Nc6ncc7c(n6)-c6ccc(Cl)cc6C(c6c(F)cccc6F)=NC7)cc5)C(F)(F)C4)CC3)nc2)C(=O)N1 (stereo not drawn) [Compound A350] | +++ (Degradation > 70%) | +++ (Degradation > 70%) | – | < 1000 | – | –
3 | O=C1CCN(c2cccc(C3CN(CC#Cc4cccc(Nc5ncc6c(n5)-c5ccc(Cl)cc5C(c5c(F)cccc5F)=NC6)c4)C3)c2)C(=O)N1 [Compound A126] | + (Degradation ≤ 30%) | + (Degradation ≤ 30%) | < 1000 | – | – | –
4 | O=C1CCN(c2ccc(N3CC4(CC(N5CCN(c6ccc(Nc7ncc8c(n7)-c7ccc(Cl)cc7C(c7nccs7)=NC8)cc6)C(=O)C5)CO4)C3)nc2)C(=O)N1 (stereo not drawn) [Compound A330] | +++ (Degradation > 70%) | +++ (Degradation > 70%) | < 1000 | – | – | –
5 | O=C1CCN(c2cccc(N3CC(CC#Cc4cccc(Nc5ncc6c(n5)-c5ccc(Cl)cc5C(c5c(F)cccc5F)=NC6)c4)C3)c2)C(=O)N1 [Compound A133] | ++ (30% < Degradation ≤ 70%) | +++ (Degradation > 70%) | < 1000 | – | – | –
6 | Cn1nc(N2CCC(=O)NC2=O)c2cc(F)c(N3CCN(C4CN(c5cccc(Nc6ncc7c(n6)-c6ccc(Cl)cc6C(c6c(F)cccc6F)=NC7)c5)C4)CC3)cc21 [Compound A244] | ++ (30% < Degradation ≤ 70%) | +++ (Degradation > 70%) | < 1000 | – | – | –
7 | O=C1CCN(c2ccc(N3CCC(N4CCN(c5ccc(Nc6ncc7c(n6)-c6ccc(Cl)cc6C(c6nccs6)=NC7)cc5)C(=O)C4)CC3)nc2)C(=O)N1 [Compound A282] | – | – | – | < 1000 | +++ (key: +: Degradation ≤ 30%; ++: 30% < Degradation ≤ 70%; +++: Degradation > 70%) | +++ (key: +: Degradation ≤ 30%; ++: 30% < Degradation ≤ 70%; +++: Degradation > 70%)
8 | O=C1CCN(c2cccc(N3CCN(C4CN(c5cccc(Nc6ncc7c(n6)-c6ccc(Cl)cc6C(c6c(F)cccc6F)=NC7)c5)C4)CC3)c2)C(=O)N1 [Compound A164] | ++ (30% < Degradation ≤ 70%) | +++ (Degradation > 70%) | < 1000 | – | – | –
9 | O=C1CCN(c2ccc(N3CCC4(CC3)CN(CC3CN(c5ccc(Nc6ncc7c(n6)-c6ccc(Cl)cc6C(c6c(F)cccc6F)=NC7)cc5)C3)CCO4)nc2)C(=O)N1 [Compound A353] | +++ (Degradation > 70%) | +++ (Degradation > 70%) | < 1000 | – | – | –
10 | COc1cccc(F)c1C1=NCc2cnc(Nc3ccc(N4CCN(C5COC6(CCN(c7ccc(N8CCC(=O)NC8=O)cn7)CC6)C5)CC4)cc3)nc2-c2ccc(Cl)cc21 (stereo not drawn) [Compound A363] | +++ (Degradation > 70%) | +++ (Degradation > 70%) | < 1000 | – | – | –
11 | O=C1CCN(c2ccc(N3CCC4(CC3)C[C@H](N3CCN(c5ccc(Nc6ncc7c(n6)-c6ccc(Cl)cc6C(c6c(F)cccc6F)=NC7)cc5)CC3)CO4)nc2)C(=O)N1 [Compound A342] | +++ (Degradation > 70%) | +++ (Degradation > 70%) | – | < 1000 | – | –
12 | O=C1CCN(c2ccc(N3CC(O)(CN4CCN(c5ccc(Nc6ncc7c(n6)-c6ccc(Cl)cc6C(c6c(F)cccc6F)=NC7)cc5)C(=O)C4)C3)nc2)C(=O)N1 [Compound A299] | – | – | – | < 1000 | +++ (key: +: Degradation ≤ 30%; ++: 30% < Degradation ≤ 70%; +++: Degradation > 70%) | +++ (key: +: Degradation ≤ 30%; ++: 30% < Degradation ≤ 70%; +++: Degradation > 70%)
13 | CP(C)(=O)c1cc(N2CCN(C(=O)C3CCN(c4ccc(Nc5ncc6c(n5)-c5ccc(Cl)cc5C(c5c(F)cccc5F)=NC6)cc4)CC3)CC2)ccc1N1CCC(=O)NC1=O [Compound A288] | + (Degradation ≤ 30%) | + (Degradation ≤ 30%) | < 1000 | – | – | –
14 | O=C1CCN(c2cncc(N3CC(CN4CCOc5ccc(Nc6ncc7c(n6)-c6ccc(Cl)cc6C(c6c(F)cccc6F)=NC7)cc5C4)C3)c2)C(=O)N1 [Compound A214] | +++ (Degradation > 70%) | + (Degradation ≤ 30%) | < 1000 | – | – | –
15 | COc1cc(Nc2ncc3c(n2)-c2ccc(Cl)cc2C(c2c(F)cccc2OC)=NC3)ccc1N1CCN(C2CCN(c3ccc(N4CCC(=O)NC4=O)cn3)CC2)CC1 [Compound A256] | +++ (Degradation > 70%) | +++ (Degradation > 70%) | < 1000 | – | – | –
16 | O=C1CCN(c2ccc(N3CCN(CCC(=O)Nc4ccc(Nc5ncc6c(n5)-c5ccc(Cl)cc5C(c5c(F)cccc5F)=NC6)cc4)CC3)cc2)C(=O)N1 [Compound A104] | +++ (Degradation > 70%) | +++ (Degradation > 70%) | < 1000 | – | – | –
17 | O=C1CCN(c2ccc(N3CCC4(CCN(C(=O)C56CC(Nc7ncc8c(n7)-c7ccc(Cl)cc7C(c7c(F)cccc7F)=NC8)(C5)C6)CC4)CC3)nc2)C(=O)N1 [Compound A265] | + (Degradation ≤ 30%) | + (Degradation ≤ 30%) | < 1000 | – | – | –
18 | O=C1CCN(c2ccc(N3CCC4(CC3)CC(NC(=O)c3ccc(Nc5ncc6c(n5)-c5ccncc5C(c5ccccc5F)=NC6)cc3)C4)nc2)C(=O)N1 [Compound A138] | +++ (Degradation > 70%) | +++ (Degradation > 70%) | 1000 to 10000 | – | – | –
19 | O=C1CCN(c2ccc(N3CCC(N4C5COCC4CN(c4ccc(Nc6ncc7c(n6)-c6ccc(Cl)cc6C(c6c(F)cccc6F)=NC7)cc4)C5)CC3)nc2)C(=O)N1 [Compound A357] | ++ (30% < Degradation ≤ 70%) | + (Degradation ≤ 30%) | < 1000 | – | – | –
20 | O=C1CCN(c2ccc(N3CCC(F)(CN4CCN(C56CC(Nc7ncc8c(n7)-c7ccc(Cl)cc7C(c7c(F)cccc7F)=NC8)(C5)C6)C(=O)C4)CC3)nc2)C(=O)N1 [Compound A272] | – | – | – | < 1000 | +++ (key: +: Degradation ≤ 30%; ++: 30% < Degradation ≤ 70%; +++: Degradation > 70%) | +++ (key: +: Degradation ≤ 30%; ++: 30% < Degradation ≤ 70%; +++: Degradation > 70%)
21 | O=C1CCN(c2ccc(N3CCC(N4CCN(C56CC(Nc7ncc8c(n7)-c7ccc(Cl)cc7C(c7c(F)cccc7F)=NC8)(C5)C6)CC4)CC3)nc2)C(=O)N1 [Compound A216] | ++ (30% < Degradation ≤ 70%) | ++ (30% < Degradation ≤ 70%) | < 1000 | – | – | –
22 | CP(C)(=O)c1cc(Nc2ncc3c(n2)-c2ccc(Cl)cc2C(c2c(F)cccc2F)=NC3)ccc1N1CCN(C2CCN(c3ccc(N4CCC(=O)NC4=O)cn3)CC2)CC1=O [Compound A303] | +++ (Degradation > 70%) | +++ (Degradation > 70%) | < 1000 | – | – | –
23 | O=C1CCN(c2cccc(N3CCC(CN4CCOc5ccc(Nc6ncc7c(n6)-c6ccc(Cl)cc6C(c6c(F)cccc6F)=NC7)cc5C4)CC3)c2)C(=O)N1 [Compound A240] | +++ (Degradation > 70%) | +++ (Degradation > 70%) | < 1000 | – | – | –
24 | CN1CCN(c2ccc(N3CCC(=O)NC3=O)cn2)CC1C(=O)N1CCN(c2ccc(Nc3ncc4c(n3)-c3ccc(Cl)cc3C(c3c(F)cccc3F)=NC4)cc2)CC1 (stereo not drawn) [Compound A309] | ++ (30% < Degradation ≤ 70%) | ++ (30% < Degradation ≤ 70%) | < 1000 | – | – | –
